In PMC5063977 (The Journal of Biological Chemistry, 2016):

How the values were obtained:
RAMP3-CLR (AM2 receptor) = target: T1, RAMP3-CLR (AM2 receptor) (Homo sapiens, UniProt O60896+Q16602); experiment: S. cerevisiae growth assay, GPA1/Gαi chimera, RAMP3 + CLR; type: cell-based; conditions: percentage of yeast strain MMY11 (lacking GPA1); 20 h; mean ± S.E., n = 7
T1 construct: FLAG; expressed in transfected cells; host or cells: HEK-293 or HEK-293S cells, transient transfection, 1:1 RAMP:CLR
Method: (§1) FIGURE 3. […] Reporter gene activity was determined following 20 h of stimulation.
(§2) General yeast procedures were performed as described previously ([22], [24]). The human CLR was introduced into yeast cells under the control of the PGK promoter using a plasmid containing ura3 (pDT-PGK). The three human RAMPs were introduced into yeast under the control of the GAPDH promoter using plasmids containing leu2 (p425-GPD) ([25]). S. cerevisiae dual reporter strains expressing chimeras of yeast GPA1(1–467) (GPA1/Gα) with the five C-terminal amino acids of […] human G proteins representing Gαs, Gα16, Gαq, Gαo, Gαi1/2, Gαi3, Gαz, Gα12, Gα13, and Gα14 (MMY84–MMY93) were used in this study ([52]). […] Receptor signaling was measured using the yeast growth assay as described previously ([24]). […] A fluorescein signal was detected as an increase in fluorescence (excitation wavelength = 485 nm, emission wavelength = 535 nm) as a measure of growth. Different concentrations of ligand (0.01 nM–100 μM) were assayed using 96-well plates, and fluorescence was detected using a Tecan Infinite M200 microplate reader (Tecan Ultra Evolution, Reading, UK) or a Mithras LB 940 microplate reader (Berthold Technologies, Harpenden, UK) for 20 h. […]

[1] = target: T2, RAMP1-CLR (CGRP receptor) (Homo sapiens, UniProt O60894+Q16602); experiment: S. cerevisiae growth assay, GPA1/Gαi chimera, RAMP1 + CLR; type: cell-based; conditions: percentage of yeast strain MMY11 (lacking GPA1); 20 h; mean ± S.E., n = 6
T2 construct: FLAG; expressed in transfected cells; host or cells: HEK-293 or HEK-293S cells, transient transfection, 1:1 RAMP:CLR
Method: as §1, §2

T1 sequence (Q16602 23-461): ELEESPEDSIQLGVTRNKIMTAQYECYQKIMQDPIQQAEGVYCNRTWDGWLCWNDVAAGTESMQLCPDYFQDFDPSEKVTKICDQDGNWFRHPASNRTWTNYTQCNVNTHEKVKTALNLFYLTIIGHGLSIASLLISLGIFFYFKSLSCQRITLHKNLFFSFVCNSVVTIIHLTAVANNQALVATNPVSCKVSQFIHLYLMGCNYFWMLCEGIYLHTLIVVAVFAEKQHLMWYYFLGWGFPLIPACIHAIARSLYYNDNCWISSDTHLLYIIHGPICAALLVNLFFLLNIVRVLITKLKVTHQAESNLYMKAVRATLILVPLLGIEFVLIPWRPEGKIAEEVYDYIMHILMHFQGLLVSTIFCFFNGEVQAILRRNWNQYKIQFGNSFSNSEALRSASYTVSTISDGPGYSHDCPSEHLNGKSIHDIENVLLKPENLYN
T1 sequence (O60896 24-148): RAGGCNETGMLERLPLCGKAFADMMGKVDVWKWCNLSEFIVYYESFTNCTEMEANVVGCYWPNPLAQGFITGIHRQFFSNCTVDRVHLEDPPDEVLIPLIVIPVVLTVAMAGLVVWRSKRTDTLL
T2 sequence (Q16602 23-461): as the sequence (Q16602 23-461) above
T2 sequence (O60894 27-148): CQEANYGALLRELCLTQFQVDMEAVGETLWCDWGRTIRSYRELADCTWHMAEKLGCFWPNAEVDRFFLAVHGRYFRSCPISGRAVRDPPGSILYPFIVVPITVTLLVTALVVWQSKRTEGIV

Compound | Emax (RAMP3-CLR (AM2 receptor)) [%] | Emax [1] [%]
CSCC[C@H](NC(=O)[C@H](CC(C)C)NC(=O)[C@H](CCC(N)=O)NC(=O)[C@H](Cc1c[nH]c2ccccc12)NC(=O)[C@H](CC(C)C)NC(=O)[C@H](CCCNC(=N)N)NC(=O)[C@H](Cc1c[nH]cn1)NC(=O)[C@H](CO)NC(=O)[C@H](CC(C)C)NC(=O)[C@H](CC(N)=O)NC(=O)[C@H](CCC(N)=O)NC(=O)[C@@H](NC(=O)[C@H](CCC(N)=O)NC(=O)[C@@H]1CSSC[C@H](NC(=O)CNC(=O)[C@@H](NC(=O)[C@H](CCCNC(=N)N)NC(=O)[C@H](CC(C)C)NC(=O)[C@H](CC(C)C)NC(=O)[C@H](CCC(N)=O)NC(=O)[C@H](C)NC(=O)[C@H](CCC(N)=O)NC(=O)[C@@H](N)[C@@H](C)O)C(C)C)C(=O)N[C@@H](C(C)C)C(=O)N[C@@H](CC(C)C)C(=O)NCC(=O)N[C@@H]([C@@H](C)O)C(=O)N1)C(C)C)C(=O)NCC(=O)N1CCC[C@H]1C(=O)N[C@@H](C)C(=O)NCC(=O)N[C@@H](CCCNC(=N)N)C(=O)N[C@@H](CCC(N)=O)C(=O)N[C@@H](CC(=O)O)C(=O)N[C@@H](CO)C(=O)N[C@@H](C)C(=O)N1CCC[C@H]1C(=O)N[C@H](C(=O)N[C@@H](CC(=O)O)C(=O)N1CCC[C@H]1C(=O)N[C@@H](CO)C(=O)N[C@@H](CO)C(=O)N1CCC[C@H]1C(=O)N[C@@H](Cc1c[nH]cn1)C(=O)N[C@@H](CO)C(=O)N[C@@H](Cc1ccc(O)cc1)C(N)=O)C(C)C [AM2, adrenomedullin 2] | 15.7 ± 2.1 | 41.5 ± 3.3
CC[C@H](C)[C@H](NC(=O)[C@H](CCC(N)=O)NC(=O)[C@H](Cc1c[nH]cn1)NC(=O)[C@H](C)NC(=O)[C@H](CC(C)C)NC(=O)[C@H](CCCCN)NC(=O)[C@H](CCC(N)=O)NC(=O)[C@@H](NC(=O)[C@@H](NC(=O)[C@@H]1CSSC[C@H](NC(=O)CNC(=O)[C@H](Cc2ccccc2)NC(=O)[C@H](CO)NC(=O)[C@H](CCCNC(=N)N)NC(=O)[C@H](CC(C)C)NC(=O)CNC(=O)[C@H](CCC(N)=O)NC(=O)[C@H](Cc2ccccc2)NC(=O)[C@H](CC(N)=O)NC(=O)[C@H](CC(N)=O)NC(=O)[C@H](CCSC)NC(=O)[C@H](CO)NC(=O)[C@H](CCC(N)=O)NC(=O)[C@H](CCCNC(=N)N)NC(=O)[C@@H](N)Cc2ccc(O)cc2)C(=O)N[C@@H](CCCNC(=N)N)C(=O)N[C@@H](Cc2ccccc2)C(=O)NCC(=O)N[C@@H]([C@@H](C)O)C(=O)N1)[C@@H](C)O)C(C)C)C(=O)N[C@@H](Cc1ccc(O)cc1)C(=O)N[C@@H](CCC(N)=O)C(=O)N[C@@H](Cc1ccccc1)C(=O)N[C@H](C(=O)N[C@@H](CC(=O)O)C(=O)N[C@@H](CCCCN)C(=O)N[C@@H](CC(=O)O)C(=O)N[C@@H](CCCCN)C(=O)N[C@@H](CC(=O)O)C(=O)N[C@@H](CC(N)=O)C(=O)N[C@H](C(=O)N[C@@H](C)C(=O)N1CCC[C@H]1C(=O)N[C@@H](CCCNC(=N)N)C(=O)N[C@@H](CO)C(=O)N[C@@H](CCCCN)C(=O)N[C@H](C(=O)N[C@@H](CO)C(=O)N1CCC[C@H]1C(=O)N[C@@H](CCC(N)=O)C(=O)NCC(=O)N[C@@H](Cc1ccc(O)cc1)C(N)=O)[C@@H](C)CC)C(C)C)[C@@H](C)O [AM, adrenomedullin] | 26.7 ± 1.8 | 34.2 ± 3.7
